Some results are limits rather than exact numbers.

A short description of this assay: Inhibition of hedgehog signaling pathway in mouse Shh Light2 cells assessed as inhibition of sonic hedgehog-induced GLI1-mediated transcriptional activity measured after 30 hrs by dual luciferase reporter gene assay. The assay is classed as cell-based. The conditions noted are these: Shh Light2, 30 h.
On to `C[C@H]1CC[C@@H]2[C@@H](C)[C@H]3[C@H](C[C@H]4[C@@H]5CC=C6C[C@@H](O)CC[C@]6(C)[C@H]5CC[C@]34C)N2C1`, for which the IC50 was > 25000 nM.
For `CC(=O)O[C@@H]1C[C@H]2[C@@H](CC=C3C[C@@H](O)CC[C@@]32C)[C@@H]2CC[C@H]([C@@](C)(O)C3=NC[C@H](C)CC3)[C@@]12C` the value was 3110 nM; for `CC(=O)O[C@H]1C[C@H]2[C@@H]3CC=C4C[C@@H](O[C@@H]5O[C@H](CO)[C@@H](O)[C@H](O)[C@H]5O)CC[C@]4(C)[C@H]3CC[C@]2(C)[C@H]1[C@H](C)C1=NC[C@H](C)CC1`, > 25000 nM.
For `CC(=O)O[C@@H]1C[C@H]2[C@@H](CC=C3C[C@@H](O[C@@H]4O[C@H](CO)[C@@H](O)[C@H](O)[C@H]4O)CC[C@@]32C)[C@@H]2CC[C@H]([C@H](C)C3=NC[C@H](C)CC3=O)[C@@]12C` the value was 1110 nM; for `Cc1c([C@H](C)[C@H]2CC[C@H](C)CN2)ccc2c1C[C@H]1[C@H]2CC=C2C[C@@H](O)CC[C@@]21C`, 630 nM; for `CC(=O)O[C@@H]1C[C@H]2[C@@H](CC=C3C[C@@H](O[C@@H]4O[C@H](CO)[C@@H](O)[C@H](O)[C@H]4O)CC[C@@]32C)[C@@H]2CC[C@H]([C@@](C)(O)C3=NC[C@H](C)CC3)[C@@]12C`, 2780 nM.
For `CC1=C2C[C@H]3[C@@H](CC=C4C[C@@H](O)CC[C@@]43C)[C@@H]2CC[C@]12O[C@@H]1C[C@H](C)CN[C@H]1[C@H]2C` [CYCLOPAMINE] the value was 74.1 nM; for `C/C=C(/C)C(=O)O[C@H]1CC[C@@]2(C)[C@@H]3CC[C@H]4[C@]5(O)[C@@H](O)[C@H](O)[C@H]6[C@@H](CN7C[C@@H](C)CC[C@H]7[C@@]6(C)O)[C@@H]5C[C@@]42O[C@@]13O`, > 25000 nM.

For the origin of these results see ChEMBL document CHEMBL3861982, “Three new alkaloids from Veratrum grandiflorum Loes with inhibition activities on Hedgehog pathway” (Bioorg Med Chem Lett, 2016).
